Results as given in PubChem BioAssay (NCI).
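Interpolation was linear, between the two tested concentrations surrounding the appropriate level; five concentrations were tested over 48 hours in 96-well plates. At the TGI there is no net growth.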

Legend:
Test in all cases: NCI tumour cell line growth inhibition, 48 h
MDA-N = tested on: MDA-N
XF 498 CNS = tested on: XF 498 CNS
LXFL 529 NSCLC = tested on: LXFL 529 NSCLC
HOP-18 NSCLC = tested on: HOP-18 NSCLC
RXF-631 renal = tested on: RXF-631 renal
SNB-78 CNS = tested on: SNB-78 CNS
DMS 114 small cell lung = tested on: DMS 114 small cell lung
P388 leukemia = tested on: P388 leukemia
P388/ADR leukemia = tested on: P388/ADR leukemia
SN12K1 renal = tested on: SN12K1 renal

| SMILES | TGI (MDA-N) | TGI (XF 498 CNS) | TGI (LXFL 529 NSCLC) | TGI (HOP-18 NSCLC) | TGI (RXF-631 renal) | TGI (SNB-78 CNS) | TGI (DMS 114 small cell lung) | TGI (P388 leukemia) | TGI (P388/ADR leukemia) | TGI (SN12K1 renal) |
| --- | --- | --- | --- | --- | --- | --- | --- | --- | --- | --- |
| COC(=O)CCCC(=O)O | > 100 µM | – | – | – | – | – | – | – | – | – |
| CS(=O)(=O)N(N(CCCl)S(=O)(=O)c1ccccc1)S(C)(=O)=O | – | > 100 µM | > 100 µM | > 100 µM | > 100 µM | – | – | – | – | – |
| O=[N+]([O-])c1cccc(C2ON2C2CCCCC2)c1 (centres undefined) | – | – | 45.6 µM | > 100 µM | – | > 100 µM | 42.9 µM | – | – | – |
| C1=CC=C2NCCCNC3=CC=CC=CC3=NCCCN=C2C=C1 | – | > 100 µM | > 100 µM | – | > 100 µM | > 100 µM | > 100 µM | – | – | – |
| O=C(CC1(O)C(=O)Nc2c(Cl)cc(Cl)cc21)c1cccc2ccccc12 (centres undefined) | – | 34.8 µM | 28.6 µM | 32.2 µM | 43.3 µM | 46.6 µM | 35.6 µM | – | – | – |
| O=C(Cc1nc2ccccc2s1)Nc1cccc(C(F)(F)F)c1 | – | 28.4 µM | 27.3 µM | 33.5 µM | 26.8 µM | – | 36.3 µM | – | – | – |
| O=[N+]([O-])c1cccc(-c2oc(C=Nc3ccccc3)c([N+](=O)[O-])c2-c2cccc([N+](=O)[O-])c2)c1 | – | – | > 100 µM | – | > 100 µM | > 100 µM | > 100 µM | – | – | – |
| CCCCS(=O)(=O)CCC(N)C(=O)O (centres undefined) | > 100 µM | – | – | – | – | – | – | – | – | – |
| CCC(=O)c1c(NOC2OC(COC(C)=O)C(OC(C)=O)C(OC(C)=O)C2OC(C)=O)nc(OC)n(C)c1=O (centres undefined) | – | > 100 µM | > 100 µM | – | > 100 µM | > 100 µM | > 100 µM | – | – | – |
| COC1OC(COCc2ccc(Cl)cc2)C(OCc2ccc(Cl)cc2)C1N=[N+]=[N-] (centres undefined) | – | > 100 µM | > 100 µM | > 100 µM | – | > 100 µM | > 100 µM | – | – | – |
| CC1(C)Cc2cc(C(=O)O)c3c(c2C1=O)COCC3 | – | > 100 µM | > 100 µM | > 100 µM | – | > 100 µM | > 100 µM | – | – | – |
| C=C1CC/C=C(\C)C(=O)C[C@@H]2[C@@H]1CC2(C)C | 3.16 µM | – | – | – | – | – | – | – | – | – |
| O=C(CCC(=O)C(C(=O)c1ccccc1)c1ccccc1)Nc1cccc(C(F)(F)F)c1 (centres undefined) | – | > 100 µM | > 100 µM | > 100 µM | – | > 100 µM | > 100 µM | – | – | – |
| Fc1ccccc1C1CC(c2ccc3ccccc3c2)=Nc2ccccc2S1 (centres undefined) | – | > 100 µM | > 100 µM | > 100 µM | – | > 100 µM | – | – | – | – |
| CC1C[C@@H]2C(=O)NC(=O)[C@@H]2c2c1c1ccccc1n2C (some centres undefined) | – | > 100 µM | > 100 µM | – | > 100 µM | > 100 µM | > 100 µM | – | – | – |
| CCCCCCCCCCCC1CCCC(C)N1 (centres undefined) | – | 95.3 µM | – | 169 µM | – | 174 µM | 139 µM | 23.9 µM | 54.7 µM | 86.4 µM |
| CC1OC(OC2C(O[C@H]3CC[C@@]4(C)C(=CC[C@H]5[C@@H]6C[C@@H]7O[C@]8(CC[C@H](C)CN8)[C@@H](C)[C@@H]7[C@@]6(C)CC[C@@H]54)C3)OC(CO)C(O)C2OC2OC(CO)C(O)C(O)C2O)C(O)C(O)C1O (some centres undefined) | 36.1 µM | – | – | – | – | – | – | – | – | – |
| CCc1cccc(C(C)C)c1NC(=O)C(=O)C(CC(=O)Nc1ccc(Cl)c(Cl)c1)C(=O)OC (centres undefined) | – | > 100 µM | – | > 100 µM | > 100 µM | > 100 µM | > 100 µM | – | – | – |
| Cc1ccc(S(=O)(=O)OCC23CCC(CC2)C2CC23)cc1 (centres undefined) | – | – | > 100 µM | > 100 µM | > 100 µM | – | > 100 µM | – | – | – |
| C1CCN(c2nc(=[N+]3CCCCC3)ss2)CC1 | – | > 100 µM | > 100 µM | > 100 µM | > 100 µM | > 100 µM | > 100 µM | – | – | – |
| Cc1occc1C(=S)Nc1ccc(Cl)c(C(=O)OC(C)C2CC2)c1 (centres undefined) | 38.4 µM | – | – | – | – | – | – | – | – | – |

| SMILES | TGI (MDA-N) | TGI (XF 498 CNS) | TGI (LXFL 529 NSCLC) | TGI (HOP-18 NSCLC) | TGI (RXF-631 renal) | TGI (SNB-78 CNS) | TGI (DMS 114 small cell lung) | TGI (P388 leukemia) | TGI (P388/ADR leukemia) | TGI (SN12K1 renal) |
| --- | --- | --- | --- | --- | --- | --- | --- | --- | --- | --- |
| COC(=O)CCC(=O)CC(=O)C(=O)Nc1c(Cl)cc([N+](=O)[O-])cc1Cl | – | > 100 µM | > 100 µM | > 100 µM | > 100 µM | > 100 µM | 77.9 µM | – | – | – |
| COCCCNC(=O)CC(=O)NCCCOC | – | – | > 100 µM | > 100 µM | > 100 µM | > 100 µM | > 100 µM | – | – | – |
| c1cc(CNCCN2CCNCC2)ccn1 | > 100 µM | – | – | – | – | – | – | – | – | – |
| COc1ccc(/C(C#N)=C/c2ccc(OC)c(OC)c2)cc1 | > 100 µM | – | – | – | – | – | – | – | – | – |
| O=C1C2C3C=CC(C2C(=O)N1COP(=O)(O)O)C1C2C(=O)N(COP(=O)(O)O)C(=O)C2C31 (centres undefined) | – | > 100 µM | > 100 µM | > 100 µM | – | > 100 µM | > 58.8 µM | – | – | – |
| COc1cc(OC)c(/C=C/c2cnc3ccccc3n2)c(OC)c1 | > 10 µM | – | – | – | – | – | – | – | – | – |
| CCCCCCCCCCCCCP(=O)(O)OCC | – | – | > 100 µM | > 100 µM | > 100 µM | > 100 µM | > 100 µM | – | – | – |
| COc1ccc2c(c1)n([O-])c1ccccc1[n+]2=O | > 100 µM | – | – | – | – | – | – | – | – | – |
| O=C(O)/C(=C/C=C/c1ccccc1)c1csc(-c2nc(/C(=C\C=C\c3ccccc3)C(=O)O)cs2)n1 | – | – | 64.8 µM | – | – | 79.8 µM | 72 µM | – | – | – |
| C=C(Br)N(CC)CC | – | – | > 100 µM | > 100 µM | > 100 µM | > 100 µM | > 100 µM | – | – | – |
| NCCCNCCCCN(CCCN)/[N+]([O-])=N\O | – | – | > 100 µM | > 100 µM | > 100 µM | > 100 µM | > 100 µM | – | – | – |
| O=C(NP(=O)(N1CC1)N1CC1)c1cc(I)ccc1I | > 100 µM | > 100 µM | > 100 µM | > 100 µM | – | > 100 µM | 99.2 µM | – | – | – |
| O=C1c2ccccc2C(=O)c2c1ccc(C1C(=O)c3ccccc3C1=O)c2-c1c(C2C(=O)c3ccccc3C2=O)ccc2c1C(=O)c1ccccc1C2=O | > 100 µM | – | – | – | – | – | – | – | – | – |
| O=C(O)c1cccc(N=Nc2c(S(=O)(=O)O)ccc3c2C(=O)c2ccccc2C3=O)c1O | > 100 µM | – | – | – | – | – | – | – | – | – |
| C[C@]1(CO)CCC[C@@]2(C)C1CC[C@H]1CC3C[C@]12CC[C@]3(C)O (some centres undefined) | – | > 100 µM | – | – | > 100 µM | > 100 µM | > 100 µM | – | – | – |
| Clc1ccc(C2SCc3nc4ccccc4n32)cc1Cl (centres undefined) | – | 24.4 µM | 24 µM | – | – | 29.1 µM | 36 µM | – | – | – |
| CCc1cccc(C(C)C)c1N1C(=O)C(=O)C(c2nc3ccccc3s2)C(=O)C1=O | – | > 50 µM | > 50 µM | > 50 µM | – | > 50 µM | > 50 µM | – | – | – |
| COc1cc2c3c(c1OC)-c1c(ccc4c1OCO4)CC3(C#N)N(C(=O)c1ccccc1)CC2 (centres undefined) | – | 60.2 µM | > 100 µM | – | > 100 µM | > 100 µM | > 100 µM | – | – | – |
| CCC1CN2CCc3c([nH]c4ccccc34)C2C[C@@H]1CC(=O)N(C)C (some centres undefined) | – | > 100 µM | > 100 µM | > 100 µM | – | > 100 µM | > 100 µM | – | – | – |
| CCOC(=O)C(=Cc1ccc(Oc2ccccc2)cc1)C(=O)OCC | 18.6 µM | 11.3 µM | 6.39 µM | 26.8 µM | 12.1 µM | – | 10.9 µM | – | – | – |
| Cc1cc(C)nc(NS(=O)(=O)c2ccc(Nc3c4ccc(Cl)cc4nc4c(C(=O)Nc5ccc(S(N)(=O)=O)cc5)cccc34)cc2)n1 | – | 45.6 µM | > 100 µM | – | 44.2 µM | > 100 µM | 65 µM | – | – | – |
